For the test, the system named is MCH receptors. Nature of the test: MCH receptor activity class (method not given). The conditions noted are these: MCH receptor; class by percent of control at 10^-7 M or IC50.

With `COc1cc(C(=O)N[C@H]2CC[C@@H](Nc3cc(N(C)C)c4ccccc4n3)CC2)cc(OC)c1OC` [compound 115], the class is 3 (Class 3 The value of percent of control at 10^−7 M was more than 60% or the value of IC50 was more than 200 nM.). As for `CN(C)c1cc(N[C@H]2CC[C@@H](NC(=O)c3cccc(C(F)(F)F)c3)CC2)nc2ccccc12` [compound 116], the figure is 3 (Class 3 The value of percent of control at 10^−7 M was more than 60% or the value of IC50 was more than 200 nM.); as for `CN(C)c1cc(N[C@H]2CC[C@@H](NC(=O)c3ccc(C(F)(F)F)cc3)CC2)nc2ccccc12` [compound 117], 3 (Class 3 The value of percent of control at 10^−7 M was more than 60% or the value of IC50 was more than 200 nM.).

Consider `CN(C)c1cc(N[C@H]2CC[C@@H](NC(=O)c3ccccc3OC(F)(F)F)CC2)nc2ccccc12` [compound 118], for which the class is on record as 3 (Class 3 The value of percent of control at 10^−7 M was more than 60% or the value of IC50 was more than 200 nM.).

As for `COc1cc(COC(=O)N[C@H]2CC[C@@H](Nc3cc(N(C)C)c4ccccc4n3)CC2)c([N+](=O)[O-])cc1OC` [compound 119], the class was 3 (Class 3 The value of percent of control at 10^−7 M was more than 60% or the value of IC50 was more than 200 nM.). As for `CN(C)c1cc(N[C@H]2CC[C@@H](NC(=O)CCCOc3ccccc3)CC2)nc2ccccc12` [compound 120], the figure is 3 (Class 3 The value of percent of control at 10^−7 M was more than 60% or the value of IC50 was more than 200 nM.); as for `COc1ccc(Br)c(C(=O)N[C@H]2CC[C@@H](Nc3cc(N(C)C)c4ccccc4n3)CC2)c1` [compound 121], 3 (Class 3 The value of percent of control at 10^−7 M was more than 60% or the value of IC50 was more than 200 nM.).

Turning to `CN(C)c1cc(N[C@H]2CC[C@@H](NC(=O)COc3c(F)c(F)c(F)c(F)c3F)CC2)nc2ccccc12` [compound 122], the class is reported as 3 (Class 3 The value of percent of control at 10^−7 M was more than 60% or the value of IC50 was more than 200 nM.).

Take `COc1ccc(CC(=O)N[C@H]2CC[C@@H](Nc3cc(N(C)C)c4ccccc4n3)CC2)cc1OC` [compound 123]: the class was 3 (Class 3 The value of percent of control at 10^−7 M was more than 60% or the value of IC50 was more than 200 nM.). Then `CN(C)c1cc(N[C@H]2CC[C@@H](NC(=O)c3ccc(F)c(F)c3F)CC2)nc2ccccc12` [compound 124], with 3 (Class 3 The value of percent of control at 10^−7 M was more than 60% or the value of IC50 was more than 200 nM.). Then `CN(C)c1cc(N[C@H]2CC[C@@H](NC(=O)C3CCCC3)CC2)nc2ccccc12` [compound 125], with 3 (Class 3 The value of percent of control at 10^−7 M was more than 60% or the value of IC50 was more than 200 nM.); and `CN(C)c1cc(N[C@H]2CC[C@@H](NC(=O)c3ccc(F)cc3F)CC2)nc2ccccc12` [compound 126, N-(cis-4-{[4-(dimethylamino)quinolin-2-yl]amino}cyclohexyl)-2,4-difluorobenzamide], with 3 (Class 3 The value of percent of control at 10^−7 M was more than 60% or the value of IC50 was more than 200 nM.). Then `CN(C)c1cc(N[C@H]2CC[C@@H](NC(=O)CCc3ccccc3)CC2)nc2ccccc12` [compound 127], with 3 (Class 3 The value of percent of control at 10^−7 M was more than 60% or the value of IC50 was more than 200 nM.). As for `CN(C)c1cc(N[C@H]2CC[C@@H](NC(=O)c3cc(F)c(F)c(F)c3F)CC2)nc2ccccc12` [compound 128], the class is 3 (Class 3 The value of percent of control at 10^−7 M was more than 60% or the value of IC50 was more than 200 nM.).

With `CCOc1ccc2ccccc2c1C(=O)N[C@H]1CC[C@@H](Nc2cc(N(C)C)c3ccccc3n2)CC1` [compound 129], the class is recorded as 3 (Class 3 The value of percent of control at 10^−7 M was more than 60% or the value of IC50 was more than 200 nM.). Then `CN(C)c1cc(N[C@H]2CC[C@@H](NC(=O)c3c(F)c(F)c(F)c(F)c3F)CC2)nc2ccccc12` [compound 130], with 3 (Class 3 The value of percent of control at 10^−7 M was more than 60% or the value of IC50 was more than 200 nM.); and `CN(C)c1cc(N[C@H]2CC[C@@H](NC(=O)c3ccc(SC(F)(F)F)cc3)CC2)nc2ccccc12` [compound 131], with 3 (Class 3 The value of percent of control at 10^−7 M was more than 60% or the value of IC50 was more than 200 nM.); and `CN(C)c1cc(N[C@H]2CC[C@@H](NC(=O)c3sc(Cl)c(Cl)c3Cl)CC2)nc2ccccc12` [compound 132], with 3 (Class 3 The value of percent of control at 10^−7 M was more than 60% or the value of IC50 was more than 200 nM.).

On to `CN(C)c1cc(N[C@H]2CC[C@@H](NC(=O)COc3cccc(Cl)c3)CC2)nc2ccccc12` [compound 133], for which the class is 1 (Class 1: The value of percent of control at 10^−7 M was less than 40% or the value of IC50 was less than 50 nM.).

As to `Cc1onc(-c2c(Cl)cccc2Cl)c1C(=O)N[C@H]1CC[C@@H](Nc2cc(N(C)C)c3ccccc3n2)CC1` [compound 134], the class is 1 (Class 1: The value of percent of control at 10^−7 M was less than 40% or the value of IC50 was less than 50 nM.). Then `CN(C)c1cc(N[C@H]2CC[C@@H](NC(=O)c3cccnc3Oc3ccccc3)CC2)nc2ccccc12` [compound 135, N-(cis-4-{[4-(dimethylamino)quinolin-2-yl]amino}cyclohexyl)-2-phenoxynicotinamide], with 1 (Class 1: The value of percent of control at 10^−7 M was less than 40% or the value of IC50 was less than 50 nM.). As for `CN(C)c1cc(N[C@H]2CC[C@@H](NC(=O)c3cccnc3Sc3ccccc3)CC2)nc2ccccc12` [compound 136], the figure is 3 (Class 3 The value of percent of control at 10^−7 M was more than 60% or the value of IC50 was more than 200 nM.); as for `Cc1ccc(Oc2ncccc2C(=O)N[C@H]2CC[C@@H](Nc3cc(N(C)C)c4ccccc4n3)CC2)cc1` [compound 137, N-(cis-4-{[4-(dimethylamino)quinolin-2-yl]amino}cyclohexyl)-2-(4-methylphenoxy)nicotinamide], 1 (Class 1: The value of percent of control at 10^−7 M was less than 40% or the value of IC50 was less than 50 nM.); as for `CCCN(CCC)S(=O)(=O)c1ccc(C(=O)N[C@H]2CC[C@@H](Nc3cc(N(C)C)c4ccccc4n3)CC2)cc1` [compound 138], 3 (Class 3 The value of percent of control at 10^−7 M was more than 60% or the value of IC50 was more than 200 nM.). Then `CN(C)c1cc(N[C@H]2CC[C@@H](NC(=O)C(C)(C)Oc3ccc(Cl)cc3)CC2)nc2ccccc12` [compound 139], with 3 (Class 3 The value of percent of control at 10^−7 M was more than 60% or the value of IC50 was more than 200 nM.). With `CN(C)c1cc(N[C@H]2CC[C@@H](NC(=O)c3cc(-c4ccc(Cl)cc4)oc3C(F)(F)F)CC2)nc2ccccc12` [compound 140], the class is 3 (Class 3 The value of percent of control at 10^−7 M was more than 60% or the value of IC50 was more than 200 nM.).

Consider `CN(C)c1cc(N[C@H]2CC[C@@H](NC(=O)c3csc(-c4ccc5c(c4)CCO5)n3)CC2)nc2ccccc12` [compound 141], for which the class is on record as 3 (Class 3 The value of percent of control at 10^−7 M was more than 60% or the value of IC50 was more than 200 nM.). For the molecule `CN(C)c1cc(N[C@H]2CC[C@@H](NC(=O)c3cc(C(C)(C)C)nn3Cc3ccc(Cl)cc3Cl)CC2)nc2ccccc12` [compound 142], the class is 3 (Class 3 The value of percent of control at 10^−7 M was more than 60% or the value of IC50 was more than 200 nM.). As for `CN(C)c1cc(N[C@H]2CC[C@@H](NC(=O)C3=Cc4cc(Cl)ccc4OC3)CC2)nc2ccccc12` [compound 143], the figure is 3 (Class 3 The value of percent of control at 10^−7 M was more than 60% or the value of IC50 was more than 200 nM.); as for `CN(C)c1cc(N[C@H]2CC[C@@H](NC(=O)c3ccc(OC(F)(F)F)c(Cl)c3)CC2)nc2ccccc12` [compound 144], 3 (Class 3 The value of percent of control at 10^−7 M was more than 60% or the value of IC50 was more than 200 nM.); as for `Cc1cc(=O)oc2c(OCC(=O)N[C@H]3CC[C@@H](Nc4cc(N(C)C)c5ccccc5n4)CC3)cccc12` [compound 145], 3 (Class 3 The value of percent of control at 10^−7 M was more than 60% or the value of IC50 was more than 200 nM.). As for `CN(C)c1cc(N[C@H]2CC[C@@H](NC(=O)c3csc(-c4cccs4)n3)CC2)nc2ccccc12` [compound 146, N-(cis-4-{[4-(dimethylamino)quinolin-2-yl]amino}cyclohexyl)-2-(2-thienyl)-1,3-thiazole-4-carboxamide], the figure is 1 (Class 1: The value of percent of control at 10^−7 M was less than 40% or the value of IC50 was less than 50 nM.).

As to `COc1cccc(C(=O)NC[C@H]2CC[C@@H](Nc3cc(N(C)C)c4ccccc4n3)CC2)c1` [compound 147, N-[(cis-4-{[4-(dimethylamino)quinolin-2-yl]amino}cyclohexyl)methyl]-3-methoxybenzamide], the class was 3 (Class 3 The value of percent of control at 10^−7 M was more than 60% or the value of IC50 was more than 200 nM.). As for `CN(C)c1cc(N[C@H]2CC[C@@H](CNC(=O)c3cccc(Br)c3)CC2)nc2ccccc12` [compound 148], the figure is 3 (Class 3 The value of percent of control at 10^−7 M was more than 60% or the value of IC50 was more than 200 nM.). As for `CN(C)c1cc(N[C@H]2CC[C@@H](CNC(=O)c3ccc(Br)cc3)CC2)nc2ccccc12` [compound 149], the figure is 3 (Class 3 The value of percent of control at 10^−7 M was more than 60% or the value of IC50 was more than 200 nM.). Then `CN(C)c1cc(N[C@H]2CC[C@@H](CNC(=O)c3ccc4nonc4c3)CC2)nc2ccccc12` [compound 150, N-[(cis-4-{[4-(dimethylamino)quinolin-2-yl]amino}cyclohexyl)methyl]-2,1,3-benzoxadiazole-5-carboxamide], with 3 (Class 3 The value of percent of control at 10^−7 M was more than 60% or the value of IC50 was more than 200 nM.); and `CN(C)c1cc(N[C@H]2CC[C@@H](CNC(=O)c3cccc(Cl)c3)CC2)nc2ccccc12` [compound 151], with 3 (Class 3 The value of percent of control at 10^−7 M was more than 60% or the value of IC50 was more than 200 nM.).

The record behind these values is patent US20050197350A1, “Novel quinoline, tetrahydroquinazoline, and pyrimidine derivatives and methods of treatment related to the use thereof” (TAISHO PHARMACEUTICAL CO., LTD., priority 2003, published 2005).
